We go through four compounds from patent US8524744B2, “Arylamine ketones, their preparation methods, the pharmaceutical composition containing them and their use” (Institute of Mataria Medica, Chinese Academy of Medical …, priority 2004, dated 2013).

For experiment [1], the system named is new vessels in mouse angiogenesis model. The conditions noted are these: mouse angiogenesis model induced by synovial fluid of patient with rheumatoid arthritis; cited from earlier work.
The test system of experiment [2] is TNF-α level in synovial fluid of rat ankle joint. The conditions noted are these: induced by immune complex; cited from earlier work.
The next experiment concerns rat ear edema. Conditions: induced by PAF or PMA; cited from earlier work.
Experiment [3] relates to polymorphonuclear leucocytes from rat pleural cavity. As to the kind of experiment: release of β-glucuronidase by polymorphonuclear leucocytes from rat pleural cavity in vitro (PAF as irritant). The class given is cell-based. How it is done: 1% carrageenan was injected into the right pleural cavity of Wistar rat to induce polymorphonuclear leucocytes. The cells was suspended in Dulbecoo's buffer at the concentration of 2.5×10^6 cells·ml^1. The fluid containing the compound or solvent and 250 μl of cells suspension were added in test tube and incubated in 37° C. waterbath for 15 min. Then 2.5 μl of cytochalasin B (1×10^−3 mol·L^−1) was added and the reaction was continued for 5 min. Then 2.5 μl of PAF (1×10^−4 mol·L^−1) was added and for another 5 min. The test tubes were put into ice bath to stop the reaction. The supernatant was isolated and used as the β-glucuronidase release fluid. 25 μl of the enzyme fluid, 25 μl of phenolphthalein-glucuronic acid (2.5 mmol·L^−1) and 100 μl of acetic acid buffer (0.1 mol·L^−1) were added into each well of 96-well plate which was placed into incubater and kept at 37° C.3 for 18 hr. 150 μl of NaOH (0.3 mol·L^−1) was added in each well to cease the reaction and the optical density was read at 550 nm.

Experiment [4] has as its target T1, PAF receptors of rat polymorphonuclear leucocytes (Rattus norvegicus, UniProt P46002).
T1 construct: The suspension of rat polymorphonuclear leucocytes was prepared; endogenous in cells; host or cells: rat polymorphonuclear leucocytes (primary, whole-cell suspension)
In words: competitive binding of [3H]-PAF to its receptors of rat polymorphonuclear leucocytes. Conditions: 37° C., 30 min, read-out: IC50, competition with [3H]-PAF binding. How it is done: The suspension of rat polymorphonuclear leucocytes was prepared. 240 μl of cells suspension (2×10^6cells·ml^−1), 5 μl of [^3H](5 μmol·L^1) were added into each well. 5 μl of unlabeled PAF (5 μl mol·L^−1)was added into the well for the nonspecific binding. The series concentrations of compound were added into the well for the competitive binding and the corresponding volume of solvent was added into the wells for the total binding or the nonspecific binding. The reaction was kept in water bath at 37° C. for 30 min and stopped by ice bath. Reaction fluid was filtrated using the filter membrane which was rinsed by cold buffer to separate the free labeled ligand. The filter membrane was dried at 80° C. and placed into a vial for scintillation in which 5 ml of scintillation agent was poured. The radioactivity strength was measured by scintillation counter.

A further experiment relates to rat neutrophils. As to the kind of experiment: chemotaxis of rat neutrophils in vitro. In kind it is cell-based. Conditions: Neutrophil, 4 hr, read-out: IC50, inhibition of chemotaxis. How it is done: The blood was collected from rat common carotid artery and anticoagulated. The neutrophils was isolated by 5% glucose solution and lymphocyte separating medium. 27 μl of irritant was added into the well at low part of the chemotaxis plate. The filter membrane was covered on the wells and the top part of the plate was assembled on the filter. 50 μl of cells suspension with various concentrations of compound or solvent was added into the well at top part of the plate. The plate was incubated at 37° C. for 4 hr. The filter was taken out, stained by hematoxylin and dehydrated. The cells migrated into the other side of the filter was counted by microscope.

In experiment [5] the test system is intracellular calcium level of rat polymorphonuclear leucocytes. In words: increase of intracellular calcium level of rat polymorphonuclear leucocytes (Fura-2/AM, PAF). In kind it is cell-based. The conditions noted are these: Leucocyte, read-out: IC50, inhibition of the increase of intracellular calcium level. How it is done:
1% carrageenan was used to induce polymorphonuclear leucocytes from rat peritoneal cavity. The Fura-2/AM (final concentration: 3×10^−6 mol·L^−1) was added into cells suspension. 1 ml of cells suspension was added into the test tube with compound or solvent. The test tubes were placed in a shaking waterbath at 37° C. for 45 min. Then the test tubes were cooled at room temperature for 15 min. The cells were rinsed twice using HBSS to discarded Fura-2/AM remained in outside of the cells. The suspension of cells loaded with Fura-2/AM was added into the absorbent chamber of fluorospectrometer. The cells were kept to suspend at 37° C. and the fluorescence strength was measured at resting condition or after 20μl of PAF (1×10^−4 mol·L^−1), 20 μl of 10% Triton X-100 and 100 μl EGTA (500 mmol·L−1) was added, respectively. The changes of the intracellular level of calcium at the resting condition or after irritants were added was calculated by program for Ca^2+ measurement.
In general terms: Calcium flux is commonly read through the fluorescence of an indicator in the cells.

In experiment [6] the test system is mouse ear edema induced by croton oil. As to the kind of experiment: mouse ear edema induced by croton oil. The class given is in vivo. Conditions: orally, 50 mg·kg^−1, Kunming mice. As to the method: Kuming mice (male, 18-22 g) were randomly divided into two groups (treatment and control) with 10 animals for each group. The animals were orally administrated with compounds or solvent, respectively. 1 hr later, 50 μl of 2% croton oil was smeared on the two sides of mouse left ear. After 4 hr the mice were sacrificed by cervical vertebra displacement. The two ears were cut off and the central sections were excised using a punch with a diameter of 8 mm and weighed. Edema was quantified as the weight difference between the two sections.

The subject of experiment [7] is mouse paw swelling induced by carrageenan. As to the kind of experiment: mouse paw swelling induced by carrageenan. The class given is in vivo. The conditions noted are these: orally, 50 mg·kg^−1, Kunming mice. How it is done: Kunming mice (male, 18-22 g) were randomly divided into two groups (treatment and control) with 10 animals for each group. The animals were orally administrated with compounds or solvent, respectively. 1 hr later, 50 μl of 1% carrageenan was intracutaneously injected into the sole of right posterior foot. After 4 hr the animals were sacrificed by displacing cervical vertebra. The two paws were cut off at ankle joint and weighed. The swelling was evaluated by the difference of the weights of two paws.

Experiment [8] deals with cutaneous vascular permeability in mice induced by PAF. As to the kind of experiment: increase of cutaneous vascular permeability in mice induced by PAF. In kind it is in vivo, mouse. The conditions noted are these: orally, 50 mg·kg^−1, Kunming mice. As to the method: Kunming mice (male, 18-22 g) were randomly divided into two groups (treatment and control) with 10 animals for each group. The animals were orally administrated with the compounds or solvent, respectively. 1 hr later, 0.25 ml of 1% evans blue dye was injected into the tail vein. After 10 min, 0.1 ml of PAF (1×10^−8 mol·L^−1) was intracutaneously injected into the dorsal skin shaved. 1 hr later, the animals were sacrificed by cervical vertebra displacement. The skin with blue spot was cut off. The evans blue dye was extracted by 0.8 ml of mixed solution of acetone and normal saline (7:3). The supernatant was transferred into the 96-well plate. The optical density was measured at 620 nm.

The next experiment has as its system mouse ear edema. Conditions: induced by arachidonic acid; cited from earlier work.

Counter-ions that a name gives are not always drawn.

T1 sequence (P46002 whole entry): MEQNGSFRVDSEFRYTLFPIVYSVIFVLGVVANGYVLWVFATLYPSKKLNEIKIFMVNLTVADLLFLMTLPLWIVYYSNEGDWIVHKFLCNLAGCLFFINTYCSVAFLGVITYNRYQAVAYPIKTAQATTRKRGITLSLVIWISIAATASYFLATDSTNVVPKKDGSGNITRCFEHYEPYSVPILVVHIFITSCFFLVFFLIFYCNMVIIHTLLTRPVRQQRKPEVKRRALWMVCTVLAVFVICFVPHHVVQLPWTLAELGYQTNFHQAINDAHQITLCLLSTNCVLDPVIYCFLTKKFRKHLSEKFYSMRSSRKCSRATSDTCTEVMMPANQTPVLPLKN

As to `Cc1nnc2n1-c1sc3c(c1C(c1ccccc1Cl)=NC2)CC(C(=O)N1CCOCC1)C3` (stereo not drawn) [WEB2170], the “increase of new vessels” value in experiment [1] is “inhibit”. In addition, in experiment [2], the “increase of TNF-α level in synovial fluid” value is given as “inhibit”.

On to `CN(C)C(=O)n1cc(C(=O)c2ccn3c2CS[C@@H]3c2cccnc2)c2ccc(-c3ccc(F)cc3)cc21` [Compound A-85783], for which, in the experiment with rat ear edema, the rat ear edema result is “significantly inhibit”.

Broadly, the IC50 is the concentration at which inhibition is half-maximal. On to `O=C(C=Cc1ccc(C(F)(F)F)cc1)CCN1CCC(Cc2ccccc2)CC1` [Compound 20, 5-[(4-Benzyl)piperidyl]-1-(4-trifluoromethylphenyl)-1-penten-3-one hydrochloride], for which the “Inhibition (%) of β-glucuronidase release” value in experiment [3] (Dose 1 × 10^−5 mol · L^−1, Irritant 1 × 10^−6 mol · L^−1) is on record as 104.03%. The IC50 in experiment [3] (Leucocyte, rat polymorphonuclear leucocytes) was found to be 308 nM; in experiment [4], 55 µM; in the experiment with rat neutrophils, 335 nM; in experiment [5] it was 5.16 µM. Also, the “Inhibition (%) of mouse ear edema” value in experiment [6] is listed as 27.66%. Moreover, the “Inhibition (%) of mouse paw swelling” value in experiment [7] was found to be 21.46%. In addition, the “Inhibition (%) of increase of cutaneous vascular permeability” value in experiment [8] is on record as 55.78%.

For the compound `COc1cc([C@H]2CC[C@H](c3cc(OC)c(OC)c(OC)c3)O2)cc(CNC(=O)N(C)O)c1OCCSc1ccc(Cl)cc1` [LDP-392], the mouse ear edema result in the experiment on mouse ear edema is “significantly inhibit”.
